Read-outs that look alike come from different tables or passages of the source. Marks after values point to notes of the source that are not given here.
What was measured:
[1] = tested on: Canton-S (DDT susceptible flies) and para^tsl (DDT resistant flies); experiment: Initial screen of DDT and 8 pyrethroids, Canton-S versus para^tsl flies; assay type: in vivo, Drosophila melanogaster; settings: for Fly Line Preferentially Killed by the Toxin: across the doses
Protocol: A test was conducted utilizing an initial screen of DDT and 8 pyrethroids against Canton-S (DDT susceptible flies) and para^tsl (DDT resistant flies). […]

para^tsl flies = experiment: Fly mortality bioassay, para^tsl; assay type: in vivo, Drosophila melanogaster; settings: for Resistance Ratio: Para^tsl
Protocol: (§1) A test was conducted utilizing an initial screen of DDT and 8 pyrethroids against Canton-S (DDT susceptible flies) and para^tsl (DDT resistant flies).
(§2) As a further step in the test, heterozygotes were tested with either deltamethrin or DDT.

heterozygous fly lines [2] = settings: stated as known; cited from earlier work
Canton-S flies = experiment: Fly mortality bioassay, Canton-S; assay type: in vivo, Drosophila melanogaster; settings: for Resistance Ratio: Canton-S, LD50 over LD50 of para^tsl males
Protocol: as §1, §2

heterozygous fly lines [3] = experiment: Fly mortality bioassay, heterozygotes; assay type: in vivo, Drosophila melanogaster
Protocol: as §2
An additional test was conducted to determine if DDT and deltamethrin applied at the same time killed the heterozygotes.
FIG. 17 graphically illustrates the application of deltamethrin by itself 220, the application of DDT by itself 222, and the application of both deltamethrin and DDT at the same time 224 to para^tsl flies, Canton-S flies, and heterozygotes.

[4] = tested on: Mycosphaeralla graminicola Wild type and Tri R1 resistant strains; experiment: Cross-resistance comparison of resistant and wild type fungal lines; assay type: cell-based; settings: for Resistance Ratio: Tri R1 resistant versus wild type; for Resistance Type: compared to resistance to Triadimenol, not tested statistically; for Possible Resistance Type: after Bonferroni correction
Description: In one embodiment, large-scale screens are utilized to determine NCR toxins that can be used against fungicide resistance. For such a screen, there will be one of three outcomes: (1) positive cross-resistance, (2) neutral (no cross-resistance), and (3) negative cross-resistance. Table 3 illustrates the EC50 for each toxin as given on two lines of Mycosphaeralla graminicola. The EC50 is the effective concentration that will kill fifty percent of the organisms in a test population. One line is Triadimenol susceptible and the other line is resistant to this compound. An estimate is made of the nature of resistance of these two lines to nine other toxins. The resistance is defined as (i) positive cross-resistance, (ii) negative cross-resistance or (iii) no cross-resistance (neutral) as compared to the resistance to Triadimenol (1RS,2RS;1RS,2RS)-1-(4chlorophenoxy)-3,3-dimethyl-1-(1H-1,2,4-trizol-1-yl) butan-1-o. Such a comparison is useful in a large-scale screen for NCR toxins for fungicides.
Three of the compounds listed in Table 3 are indicated as potential NCR toxins (Triflumizole, Ferarimol, and Nuarimol). In one embodiment, screening resources are used efficiently, i.e. the potential for identifying false-positives is minimized, by focusing on investigating potential NCR toxins through a test with a correction factor, such as a Bonferroni correction. Alternatively, other correction factors can be used including, but not limited to, Duncan's method. […] Where differential toxicity occurs between the two fungal lines on a given toxin, a difference in toxicity between the two lines is determined. If the fungal line that was resistant to the first toxin (e.g. Triadimenol) is now more susceptible to the new toxin (e.g. Triflumizole, Ferarimol, or Nuarimol) potential NCR toxin pairs are identified.
Differences between toxins, in terms of NCR activity, may be indicated where such differences may not truly exist (type I error in statistical hypothesis testing). In the present example, the confidence interval is extended using, for example, Bonferroni correction, which is needed to control for false positives in detection of NCR toxins in large-screen tests. A NCR factor is declared if the second toxin requires a lower dosage to kill the resistant line as compared to the wild type fungal line or lines. The consequences of a failure to use Bonferroni correction normally results in higher numbers of false positives in a large-scale screen. Toxins that are selected on the basis of no correction may still be considered as putative NCR toxins, but deserving less consideration than those identified using the correction method. A Bonferroni correction is thus performed on the three putative NCR toxins (and the reference toxin) to determine if one of the toxins is a NCR factor.
Table 4 illustrates the Bonferroni corrected data (from Table 3 above) of the reference compound (Triadimenol) and the three putative NCR toxins for fungicide resistance. The correction was made based on four compounds tested, each with minimally five doses to calculate the effective concentration fifty (EC50).

TF-FVIIa complex = TF-FVIIa complex (Homo sapiens, UniProt P08709); settings: Inhibitor concentration ± standard error; read-out: FX activation (IC50); cited from earlier work
[5] = tested on: Drosophila sodium channel, para, resistance mutation line; settings: mutation not observed in nature; cited from earlier work

Sequence of TF-FVIIa complex (P08709 213-466 limits assumed): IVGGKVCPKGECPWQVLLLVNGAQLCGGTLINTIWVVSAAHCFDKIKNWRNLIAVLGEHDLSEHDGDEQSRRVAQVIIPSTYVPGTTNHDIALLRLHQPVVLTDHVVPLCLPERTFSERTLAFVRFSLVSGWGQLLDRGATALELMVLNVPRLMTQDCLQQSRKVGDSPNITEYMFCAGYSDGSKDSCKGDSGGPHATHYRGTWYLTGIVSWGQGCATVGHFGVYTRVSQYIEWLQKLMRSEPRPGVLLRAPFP
Sequence of TF-FVIIa complex (P08709 61-212 limits assumed): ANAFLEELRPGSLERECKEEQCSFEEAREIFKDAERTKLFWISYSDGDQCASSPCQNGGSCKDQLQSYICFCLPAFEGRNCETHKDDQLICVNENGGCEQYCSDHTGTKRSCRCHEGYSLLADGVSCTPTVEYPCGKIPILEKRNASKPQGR
Sequence of TF-FVIIa complex (P13726 33-295 partner): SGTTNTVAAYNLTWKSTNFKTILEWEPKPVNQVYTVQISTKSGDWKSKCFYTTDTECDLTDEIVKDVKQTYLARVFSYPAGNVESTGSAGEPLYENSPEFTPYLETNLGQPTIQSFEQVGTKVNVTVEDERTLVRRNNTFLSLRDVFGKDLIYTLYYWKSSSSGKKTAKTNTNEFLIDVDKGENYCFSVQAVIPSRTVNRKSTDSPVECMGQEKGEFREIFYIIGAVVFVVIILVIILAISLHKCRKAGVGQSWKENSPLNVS

CC(C)[C@H](C(=O)O[C@H](C#N)c1cccc(Oc2ccccc2)c1)c1ccc(Cl)cc1 [Asana]
Fly Line Preferentially Killed by the Toxin [1]: Neither

C=CCC1=C(C)C(OC(=O)C2C(C=C(C)C)C2(C)C)CC1=O [D-trans allethrin]
Fly Line Preferentially Killed by the Toxin [1]: Neither

Clc1ccc(C(c2ccc(Cl)cc2)C(Cl)(Cl)Cl)cc1 [DDT]
Fly Line Preferentially Killed by the Toxin [1]: Canton-S | Percent Dead Para^tsl (para^tsl flies; Dose 0.2): 13.3% | Percent Dead Para^tsl (para^tsl flies; Dose 0.5): 0% | Percent Dead Para^tsl (para^tsl flies; Dose 1): 0% | Percent Dead Para^tsl (para^tsl flies; Dose 2): 3.3% | Percent Dead Para^tsl (para^tsl flies; Dose 5): 6.7% | Percent Dead Para^tsl (para^tsl flies; Dose 8): 23.3% | Percent Dead Para^tsl (para^tsl flies; Dose 10): 13.3% | Percent Dead Para^tsl (para^tsl flies; Dose 15): 8.3% | Percent Dead Para^tsl (para^tsl flies; Dose 20): 6.7% | Resistance of heterozygotes (heterozygous fly lines [2]): heterozygotes are resistant to DDT | Percent Dead Cantons-S (Canton-S flies; Dose 0.2): 11.7% | Percent Dead Cantons-S (Canton-S flies; Dose 0.5): 8.3% | Percent Dead Cantons-S (Canton-S flies; Dose 1): 6.7% | Percent Dead Cantons-S (Canton-S flies; Dose 2): 15.0% | Percent Dead Cantons-S (Canton-S flies; Dose 5): 35.0% | Percent Dead Cantons-S (Canton-S flies; Dose 8): 48.3% | Percent Dead Cantons-S (Canton-S flies; Dose 10): 43.3% | Percent Dead Cantons-S (Canton-S flies; Dose 15): 75.0% | Percent Dead Cantons-S (Canton-S flies; Dose 20): 71.7%

CC1(C)[C@H](C(=O)O[C@H](C#N)c2cccc(Oc3ccccc3)c2)[C@@H]1C=C(Br)Br [Deltamethrin]
Fly Line Preferentially Killed by the Toxin [1]: Para^tsl | Fly Line Preferentially Killed by the Toxin ([1]; listed as deltamethrin): more toxic to para^tsl flies than to Canton-S flies | Preferential killing when tested by individual doses ([1]; individual doses): preferentially killed para^tsl flies | Percent Dead Para^tsl (para^tsl flies; Dose 0.2): 98.3% | Percent Dead Para^tsl (para^tsl flies; Dose 0.5): 100% | Percent Dead Para^tsl (para^tsl flies; Dose 1): 85.0% | Percent Dead Para^tsl (para^tsl flies; Dose 2): 100% | Percent Dead Para^tsl (para^tsl flies; Dose 5): 100% | Percent Dead Para^tsl (para^tsl flies; Dose 8): 100% | Percent Dead Para^tsl (para^tsl flies; Dose 10): 98.3% | Percent Dead Para^tsl (para^tsl flies; Dose 15): 100% | Percent Dead Para^tsl (para^tsl flies; Dose 20): 100% | Resistance Ratio (para^tsl flies; Female, LD50 over LD50 of para^tsl males): 1.4 | Resistance Ratio (para^tsl flies; Male, denominator line): 1.0* | Resistance Ratio (heterozygous fly lines [3]; Heterozygotes, Female, LD50 over LD50 of para^tsl males): 21.5 | Resistance of heterozygotes (heterozygous fly lines [3]; from Table 8): resistant to deltamethrin and resistance is dominant | Resistance Ratio (Canton-S flies; Female): 24.7 | Resistance Ratio (Canton-S flies; Male): 9.9 | Percent Dead Cantons-S (Canton-S flies; Dose 0.2): 31.7% | Percent Dead Cantons-S (Canton-S flies; Dose 0.5): 56.7% | Percent Dead Cantons-S (Canton-S flies; Dose 1): 26.7% | Percent Dead Cantons-S (Canton-S flies; Dose 2): 93.3% | Percent Dead Cantons-S (Canton-S flies; Dose 5): 100% | Percent Dead Cantons-S (Canton-S flies; Dose 8): 96.7% | Percent Dead Cantons-S (Canton-S flies; Dose 10): 98.3% | Percent Dead Cantons-S (Canton-S flies; Dose 15): 100% | Percent Dead Cantons-S (Canton-S flies; Dose 20): 98.3%

CC(Cc1ccc(C(C)(C)C)cc1)CN1C[C@@H](C)O[C@@H](C)C1 (stereo partly shown) [Fenpropimorph]
Resistance Ratio [4]: 0.9 | Resistance Type [4]: Neutral

OC(c1ccc(Cl)cc1)(c1cncnc1)c1ccccc1Cl (stereo not shown) [Ferarimol]
Resistance Ratio [4]: 0.3 | Possible Resistance Type [4]: Negative | Resistance Type [4]: Negative

O=c1c2cc(F)ccc2nc(-n2cncn2)n1-c1ccc(Cl)cc1Cl [Fluquinconazole]
Resistance Ratio [4]: 0.4 | Resistance Type [4]: Negative

C[Si](Cn1cncn1)(c1ccc(F)cc1)c1ccc(F)cc1 [Flusilazole]
Resistance Ratio [4]: 4.2 | Resistance Type [4]: Positive

C=CCOC(Cn1ccnc1)c1ccc(Cl)cc1Cl (stereo not shown) [Imazalil]
Resistance Ratio [4]: 5.0 | Resistance Type [4]: Positive

OC(c1ccc(F)cc1)(c1cncnc1)c1ccccc1Cl (stereo not shown) [Nuarimol]
Resistance Ratio [4]: 0.4 | Possible Resistance Type [4]: Negative | Resistance Type [4]: Negative

CC1(C)[C@H](/C=C(\Cl)C(F)(F)F)[C@@H]1C(=O)O[C@@H](C#N)c1cccc(Oc2ccccc2)c1 [PP321]
Fly Line Preferentially Killed by the Toxin [1]: Neither

Cc1c(F)c(F)c(COC(=O)[C@H]2[C@@H](/C=C(\Cl)C(F)(F)F)C2(C)C)c(F)c1F [PP993]
Fly Line Preferentially Killed by the Toxin [1]: Canton-S

CC1(C)C(C=C(Cl)Cl)C1C(=O)OCc1cccc(Oc2ccccc2)c1 (stereo not shown) [Permethrin]
Fly Line Preferentially Killed by the Toxin [1]: Para^tsl | Fly Line Preferentially Killed by the Toxin ([1]; listed as permethrin): more toxic to para^tsl flies than to Canton-S flies

CCCN(CCOc1c(Cl)cc(Cl)cc1Cl)C(=O)n1ccnc1 [Prochloraz]
Resistance Ratio [4]: 3.3 | Resistance Type [4]: Positive

CC(C)=CC1C(C(=O)OCc2coc(Cc3ccccc3)c2)C1(C)C (stereo not shown) [Resmethrin]
Fly Line Preferentially Killed by the Toxin [1]: Para^tsl

CC(C)(C)C(O)(CCc1ccc(Cl)cc1)Cn1cncn1 (stereo not shown) [Tebuconazole]
Resistance Ratio [4]: 3.3 | Resistance Type [4]: Positive

CC1(C)C(C=C(Cl)Cl)C1C(=O)OC(C#N)c1ccc(F)c(Oc2ccccc2)c1 (stereo not shown) [Tempo]
Fly Line Preferentially Killed by the Toxin [1]: Para^tsl

CC(C)(C)C(O)C(Oc1ccc(Cl)cc1)n1cncn1 (stereo not drawn) [Triadimenol, (1RS,2RS;1RS,2RS)-1-(4chlorophenoxy)-3,3-dimethyl-1-(1H-1,2,4-trizol-1-yl) butan-1-o]
Resistance Ratio [4]: 31

CCCOC/C(=N\c1ccc(Cl)cc1C(F)(F)F)n1ccnc1 [Triflumizole]
Resistance Ratio [4]: 0.3 | Possible Resistance Type [4]: Neutral (n.s.)† | Resistance Type [4]: Negative

consensus sequence from the hard randomization, C (MEEWEVLCWTWETCERGEGQ), Z-domain fusion [C-Z]
IC50 (TF-FVIIa complex): 5.9 ± 0.9 nM

B1: AaIT: a protein isolated from Scorpion toxin (protein, UniProt P01497 19-88, looked up)
Beta-insect excitatory toxin 1: KKNGYAVDSSGKAPECLLSNYCNNECTKVHYADKGYCCLLSCYCFGLNDDKKVLEISDTRKSYCDTTIIN
NCR in a resistance mutation line [5]: no NCR

From patent publication US20050069496A1, “Methods of screening, determining, developing and utilizing negative cross resistance toxins” (priority 2001, published 2005)
